Test results as given in the supplement of paper PMC10307832.

Legend:
Experiment in all cases: relative viability (nuclei count vs DMSO), 5 days (fraction); higher = more cells survive
EMC-BAC-2 = tested on: EMC-BAC-2
In short: (§1)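 For relative viability, nuclei counts in treated wells were divided by those in vehicle wells. Lung cancer cell lines had been pin-tool dosed in 1536-well plates the day after seeding and cultured for 5 days, then fixed and stained in one step (final 0.05% Triton X-100, 1% formaldehyde, 1 ug/ml Hoechst) and imaged at 4×. Doses were one drug alone or a fixed anchor-drug dose plus five library-drug doses (not always all listed) in √10 steps, and values are duplicate-plate medians.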

NCI-H1755 = tested on: NCI-H1755
In short: as §1

NCI-H1944 = tested on: NCI-H1944
In short: as §1

LC-2-ad = tested on: LC-2-ad
In short: as §1

NCI-H2087 = tested on: NCI-H2087
In short: as §1

SK-LU-1 = tested on: SK-LU-1
In short: as §1

SK-MES-1 = tested on: SK-MES-1
In short: as §1

COR-L 105 = tested on: COR-L 105
In short: as §1

PC-3 [JPC-3] = tested on: PC-3 [JPC-3]
In short: as §1

NCI-H661 = tested on: NCI-H661
In short: as §1

NCI-H2347 = tested on: NCI-H2347
In short: as §1

NCI-H2085 = tested on: NCI-H2085
In short: as §1

CAL-12T = tested on: CAL-12T
In short: as §1

LK-2 = tested on: LK-2
In short: as §1

NCI-H1793 = tested on: NCI-H1793
In short: as §1

H3255 = tested on: H3255
In short: as §1

NCI-H2228 = tested on: NCI-H2228
In short: as §1

NCI-H1651 = tested on: NCI-H1651
In short: as §1

NCI-H1915 = tested on: NCI-H1915
In short: as §1

NCI-H1437 = tested on: NCI-H1437
In short: as §1

EKVX = tested on: EKVX
In short: as §1

LXF-289 = tested on: LXF-289
In short: as §1

NCI-H1395 = tested on: NCI-H1395
In short: as §1

Question: How did the relative viability (EMC-BAC-2; first compound 0.08 µM) turn out when `Cc1cnc(-c2cnc(NCCNc3ccc(C#N)cn3)nc2-c2ccc(Cl)cc2Cl)[nH]1` + Cc1nc(NC(=O)N2CCC[C@H]2C(N)=O)sc1-c1ccnc(C(C)(C)C(F)(F)F)c1 [Alpelisib] (partner 2 µM) was run?
Answer: 0.8

Question: What about the relative viability (EMC-BAC-2; first compound 0.253 µM) of the same compound?
Answer: 0.72

Question: And the relative viability (EMC-BAC-2; first compound 0.8 µM)?
Answer: 0.743

Question: And the relative viability (EMC-BAC-2; first compound 2.53 µM)?
Answer: 0.749

Question: What about the relative viability (NCI-H1755; first compound 0.08 µM) of the same compound?
Answer: 0.998

Question: What about the relative viability (NCI-H1755; first compound 0.253 µM) of the same compound?
Answer: 0.851

Question: What about the relative viability (NCI-H1755; first compound 0.8 µM) of the same compound?
Answer: 0.901

Question: What about the relative viability (NCI-H1755; first compound 2.53 µM) of the same compound?
Answer: 0.896

Question: And the relative viability (NCI-H1944; first compound 0.08 µM)?
Answer: 0.827

Question: What about the relative viability (NCI-H1944; first compound 0.8 µM) of the same compound?
Answer: 0.84

Question: What about the relative viability (NCI-H1944; first compound 2.53 µM) of the same compound?
Answer: 0.824

Question: And the relative viability (LC-2-ad; first compound 0.08 µM)?
Answer: 1.04

Question: And the relative viability (LC-2-ad; first compound 0.8 µM)?
Answer: 0.832

Question: And the relative viability (LC-2-ad; first compound 2.53 µM)?
Answer: 0.892

Question: What about the relative viability (NCI-H2087; first compound 0.08 µM) of the same compound?
Answer: 1.21

Question: What about the relative viability (NCI-H2087; first compound 0.253 µM) of the same compound?
Answer: 0.892

Question: What about the relative viability (NCI-H2087; first compound 0.8 µM) of the same compound?
Answer: 1.02

Question: And the relative viability (NCI-H2087; first compound 2.53 µM)?
Answer: 1.06

Question: And the relative viability (SK-LU-1; first compound 0.08 µM)?
Answer: 1.09

Question: And the relative viability (SK-LU-1; first compound 0.253 µM)?
Answer: 0.931

Question: What about the relative viability (SK-LU-1; first compound 0.8 µM) of the same compound?
Answer: 1.28

Question: What about the relative viability (SK-LU-1; first compound 2.53 µM) of the same compound?
Answer: 1.18

Question: What about the relative viability (SK-MES-1; first compound 0.08 µM) of the same compound?
Answer: 1.01

Question: And the relative viability (SK-MES-1; first compound 0.253 µM)?
Answer: 0.888

Question: And the relative viability (SK-MES-1; first compound 2.53 µM)?
Answer: 0.911

Question: And the relative viability (COR-L 105; first compound 0.08 µM)?
Answer: 0.994

Question: What about the relative viability (COR-L 105; first compound 0.253 µM) of the same compound?
Answer: 0.927

Question: What about the relative viability (COR-L 105; first compound 0.8 µM) of the same compound?
Answer: 1.11

Question: What about the relative viability (COR-L 105; first compound 2.53 µM) of the same compound?
Answer: 0.612

Question: And the relative viability (PC-3 [JPC-3]; first compound 0.08 µM)?
Answer: 1

Question: What about the relative viability (PC-3 [JPC-3]; first compound 0.253 µM) of the same compound?
Answer: 0.934

Question: What about the relative viability (PC-3 [JPC-3]; first compound 0.8 µM) of the same compound?
Answer: 1.02

Question: And the relative viability (PC-3 [JPC-3]; first compound 2.53 µM)?
Answer: 1.01

Question: And the relative viability (NCI-H661; first compound 0.08 µM)?
Answer: 0.419

Question: And the relative viability (NCI-H661; first compound 0.253 µM)?
Answer: 0.645

Question: And the relative viability (NCI-H661; first compound 0.8 µM)?
Answer: 0.76

Question: What about the relative viability (NCI-H661; first compound 2.53 µM) of the same compound?
Answer: 0.654

Question: And the relative viability (NCI-H2347; first compound 0.08 µM)?
Answer: 1.08

Question: What about the relative viability (NCI-H2347; first compound 0.253 µM) of the same compound?
Answer: 0.812

Question: And the relative viability (NCI-H2347; first compound 0.8 µM)?
Answer: 1.15

Question: What about the relative viability (NCI-H2347; first compound 2.53 µM) of the same compound?
Answer: 1.01

Question: And the relative viability (NCI-H2085; first compound 0.08 µM)?
Answer: 1.13

Question: And the relative viability (NCI-H2085; first compound 0.253 µM)?
Answer: 1.03

Question: What about the relative viability (NCI-H2085; first compound 0.8 µM) of the same compound?
Answer: 0.94

Question: What about the relative viability (NCI-H2085; first compound 2.53 µM) of the same compound?
Answer: 0.961

Question: What about the relative viability (CAL-12T; first compound 0.08 µM) of the same compound?
Answer: 1.2

Question: What about the relative viability (CAL-12T; first compound 0.253 µM) of the same compound?
Answer: 1.16

Question: And the relative viability (CAL-12T; first compound 0.8 µM)?
Answer: 1.2

Question: And the relative viability (CAL-12T; first compound 2.53 µM)?
Answer: 0.848

Question: And the relative viability (LK-2; first compound 0.08 µM)?
Answer: 1.21

Question: What about the relative viability (LK-2; first compound 0.253 µM) of the same compound?
Answer: 1.05

Question: What about the relative viability (LK-2; first compound 0.8 µM) of the same compound?
Answer: 1.13

Question: And the relative viability (LK-2; first compound 2.53 µM)?
Answer: 1.3

Question: And the relative viability (NCI-H1793; first compound 0.08 µM)?
Answer: 0.838

Question: What about the relative viability (NCI-H1793; first compound 0.253 µM) of the same compound?
Answer: 0.618

Question: And the relative viability (NCI-H1793; first compound 0.8 µM)?
Answer: 0.973

Question: And the relative viability (NCI-H1793; first compound 2.53 µM)?
Answer: 1.08

Question: What about the relative viability (H3255; first compound 0.08 µM) of the same compound?
Answer: 0.886

Question: What about the relative viability (H3255; first compound 0.253 µM) of the same compound?
Answer: 0.618

Question: And the relative viability (H3255; first compound 0.8 µM)?
Answer: 0.802

Question: And the relative viability (H3255; first compound 2.53 µM)?
Answer: 0.73

Question: And the relative viability (NCI-H2228; first compound 0.08 µM)?
Answer: 0.931

Question: And the relative viability (NCI-H2228; first compound 0.253 µM)?
Answer: 0.7

Question: And the relative viability (NCI-H2228; first compound 0.8 µM)?
Answer: 0.987

Question: And the relative viability (NCI-H2228; first compound 2.53 µM)?
Answer: 0.717

Question: And the relative viability (NCI-H1651; first compound 0.08 µM)?
Answer: 1.08

Question: And the relative viability (NCI-H1651; first compound 0.253 µM)?
Answer: 0.903

Question: What about the relative viability (NCI-H1651; first compound 0.8 µM) of the same compound?
Answer: 0.965

Question: What about the relative viability (NCI-H1651; first compound 2.53 µM) of the same compound?
Answer: 0.991

Question: And the relative viability (NCI-H1915; first compound 0.08 µM)?
Answer: 1.08

Question: And the relative viability (NCI-H1915; first compound 0.8 µM)?
Answer: 1.09

Question: What about the relative viability (NCI-H1915; first compound 2.53 µM) of the same compound?
Answer: 1.01

Question: And the relative viability (NCI-H1437; first compound 0.08 µM)?
Answer: 0.962

Question: What about the relative viability (NCI-H1437; first compound 0.253 µM) of the same compound?
Answer: 0.937

Question: What about the relative viability (NCI-H1437; first compound 0.8 µM) of the same compound?
Answer: 0.909

Question: What about the relative viability (NCI-H1437; first compound 2.53 µM) of the same compound?
Answer: 0.918

Question: What about the relative viability (EKVX; first compound 0.08 µM) of the same compound?
Answer: 1.04

Question: What about the relative viability (EKVX; first compound 0.253 µM) of the same compound?
Answer: 0.739

Question: What about the relative viability (EKVX; first compound 0.8 µM) of the same compound?
Answer: 0.839

Question: What about the relative viability (EKVX; first compound 2.53 µM) of the same compound?
Answer: 0.766

Question: What about the relative viability (LXF-289; first compound 0.08 µM) of the same compound?
Answer: 1.11

Question: What about the relative viability (LXF-289; first compound 0.253 µM) of the same compound?
Answer: 1

Question: And the relative viability (LXF-289; first compound 0.8 µM)?
Answer: 1.05

Question: And the relative viability (LXF-289; first compound 2.53 µM)?
Answer: 1.08

Question: And the relative viability (NCI-H1395; first compound 0.08 µM)?
Answer: 1.23

Question: And the relative viability (NCI-H1395; first compound 0.253 µM)?
Answer: 1.03

Question: What about the relative viability (NCI-H1395; first compound 0.8 µM) of the same compound?
Answer: 1.41

Question: What about the relative viability (NCI-H1395; first compound 2.53 µM) of the same compound?
Answer: 0.971
